Publication PMC5519579, “Inhibition of PAI-1 Activity by Toddalolactone as a Mechanism for Promoting Blood Circulation and Removing Stasis by Chinese Herb Zanthoxylum nitidum var. tomentosum” (Frontiers in Pharmacology, 2017)

Target: T1, plasminogen activator inhibitor-1 (PAI-1) (Homo sapiens, UniProt P05121)
T1 construct: gene SERPINE1; recombinant human PAI-1
Assay: chromogenic uPA/S-2444 assay with recombinant PAI-1; supported by SDS-PAGE of PAI-1/uPA complex and clot lysis assay
Type: biochemical

T1 sequence (P05121 24-402, other chains not shown): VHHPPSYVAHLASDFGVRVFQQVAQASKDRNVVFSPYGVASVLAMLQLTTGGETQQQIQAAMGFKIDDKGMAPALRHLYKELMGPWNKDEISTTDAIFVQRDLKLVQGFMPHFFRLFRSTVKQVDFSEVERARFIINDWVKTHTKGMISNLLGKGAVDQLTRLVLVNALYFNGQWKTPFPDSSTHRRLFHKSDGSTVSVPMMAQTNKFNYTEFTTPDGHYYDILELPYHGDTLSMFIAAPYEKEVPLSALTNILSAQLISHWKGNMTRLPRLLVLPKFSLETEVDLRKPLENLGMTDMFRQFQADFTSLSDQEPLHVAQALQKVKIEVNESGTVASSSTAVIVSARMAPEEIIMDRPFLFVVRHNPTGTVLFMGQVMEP

Structure (SMILES): COc1cc2oc(=O)ccc2c(OC)c1C[C@@H](O)C(C)(C)O (single isomer, unassigned) [Peak 4, toddalolactone]
- IC50: 37.3 ± 3.23 µM
